{"source": "patent US11932683B2", "about": "“Cellular factors involved in the cytotoxicity of Staphylococcus aureus leukocidins: novel therapeutic targets” (NEW YORK UNIVERSITY, priority 2013, dated 2024)", "key": {"human PMNs": {"tested_on": "human PMNs", "assay": "Viability of PMNs challenged with a lethal dose of LukED in the presence of chemokines", "format": "cell-based", "details": "LukED 75 nM"}, "PMNs": {"tested_on": "PMNs", "assay": "Ex vivo infection of PMNs with toxin-producing S. aureus strains", "format": "cell-based, human", "details": "multiplicity of infection of 10", "description": "Ex vivo infection experiments. S. aureus strains containing either the pOS1-plukA-lukAs.s.-6×His vector construct containing either no toxin (empty), lukED or lukE^DR4D were subcultured for 4.5 hours, followed by normalization to 1×10^9 CFU per ml in RPMI+10% FBS. Cells were diluted 1:10 and 20 μl were added to 80 μl of media containing 2×10^5 PMNs seeded into 96-well plates. Infections were carried out for 3.5 hours at 37° C. with shaking at 180 RPM. 2 μg ml-1 of lysostaphin was added for 20 minutes at 37° C. with shaking at 180 RPM to kill all bacteria. Cells were centrifuged for 5 minutes at 1,500 RPM and 4° C., followed by fixing in FACS fixing buffer (PBS+2% FBS+2% paraformaldehyde+0.05% sodium azide). To analyze toxin mediated killing by flow cytometry, cellular depletion from gated live cells was evaluated. Percent cell death was calculated by comparing cells remaining in the live gate to that of Newman ΔΔΔΔ strain containing the empty pOS1-plukA modified empty vector (no toxin), which was set to 0% dead."}}, "data": [{"substance": "CXCL8: chemokine ligand of CXCR1/CXCR2, obtained from BioLegend", "values": [{"measurement": "prevention of LukED-mediated death of PMNs", "setting": "human PMNs", "result": "prevented LukED-mediated death of PMNs"}, {"measurement": "inhibition of cytotoxic activity of the LukED-producing S. aureus strain on PMNs", "setting": "PMNs", "result": "inhibited by CXCL8"}]}]}
